In US20110053925A1, “Hydroxamate-Based Inhibitors of Deacetylases” (Novartis AG, priority 2009, published 2011):
pIC50: −log10 of the molar value.

What was measured:
[1] = test system: HCT116; assay: HCT116 IC50; assay type: cell-based; settings: Homo sapiens, HCT-116
[2] = target: T1, HDAC-1 (Homo sapiens, UniProt Q13547); assay: HDAC Inhibition Assay (purified GST-HDAC protein); assay type: biochemical
T1 construct: made in house; host or cells: Sf9 or Sf21 insect cells (baculovirus, donor vector pFB-GSTX3)
Text: The baculovirus donor vector pFB-GSTX3 is used to generate a recombinant baculovirus that can express the HDAC polypeptide. Transfer vectors containing the HDAC coding region are transfected into the DH10Bac cell line (GIBCO) and plated on selective agar plates. Colonies without insertion of the fusion sequence into the viral genome (carried by the bacteria) are blue. Single, white colonies are picked and viral DNAs (bacmid) are isolated from the bacteria by standard plasmid purification procedures. Sf9 cells or Sf21 (American Type Culture Collection) cells are then transfected in […] flasks with the viral DNA using Cellfectin reagent.
Virus-containing media is collected from the transfected cell culture and used for infection to increase its titer. Virus-containing media obtained after two rounds of infection is used for large-scale protein expression. For large-scale protein expression 100 cm^2 round tissue culture plates are seeded with 5×10^7 cells/plate and infected with 1 mL of virus-containing media (at an approximately MOI of 5). After 3 days, the cells are scraped off the plate and centrifuged at 500 rpm for 5 minutes. Cell pellets from 10-20, 100 cm^2 plates, are re-suspended in 50 mL of ice-cold lysis buffer (25 mM tris-HCl, pH 7.5, 2 mM EDTA, 1% NP-40, 1 mM DTT, 1 mM P MSF). The cells are stirred on ice for 15 minutes and then centrifuged at 5,000 rpms for 20 minutes.
The centrifuged cell lysate is loaded onto a 2 mL glutathione-sepharose column (Pharmacia) and is washed thrice with 10 mL of 25 mM tris-HCl, pH 7.5, 2 mM EDTA, 1 mM DTT, 200 mM NaCl. The GST-tagged proteins are then eluted by 10 applications (1 mL each) of 25 mM tris-HCl, pH 7.5, 10 mM reduced-glutathione, 100 mM NaCl, 1 mM DTT, 10% glycerol and stored at −70° C.
HDAC assays with purified GST-HDAC protein are carried out in a final volume of 30 μL containing 15 ng of GST-HDAC protein, 20 mM tris-HCl, pH 7.5, 1 mM MnCl2, 10 mM MgCl2, 1 mM DTT, 3 μg/mL poly(Glu,Tyr) 4:1, 1% DMSO, 2.0 μM ATP (γ-[^33P]-ATP 0.1 μCi). The activity is assayed in the presence or absence of inhibitors. […] Subsequently, […] of the reaction mixture are transferred onto EMMOBILON-PVDF membrane (Millipore) previously soaked for 5 minutes with methanol, rinsed with water, then soaked for 5 minutes with 0.5% H3PO4 and mounted on vacuum manifold with disconnected vacuum source. After spotting all samples, a vacuum is connected and each well rinsed with 200 μL 0.5% H3PO4. Membranes are removed and washed four times on a shaker with 1.0% H3PO4, once with ethanol. Membranes are counted after drying at ambient temperature, mounting in Packard TopCount 96-well frame, and addition of 10 μL/well of MICROSCINT™ (Packard).
• Input: 3×4 μL stopped assay on IMMOBILON membrane, not washed • Background (3 wells): assay with H2O instead of enzyme • Positive control (4 wells): 3% DMSO instead of compound • Bath control (1 well): no reaction mix
In each experiment, the actual inhibition by reference compound is used for normalization of IC50 values to the basis of an average value of the reference inhibitor:
Normalized IC50=measured IC50 average ref. IC50/measured ref. IC50

T1 sequence (Q13547 whole entry, species assumed): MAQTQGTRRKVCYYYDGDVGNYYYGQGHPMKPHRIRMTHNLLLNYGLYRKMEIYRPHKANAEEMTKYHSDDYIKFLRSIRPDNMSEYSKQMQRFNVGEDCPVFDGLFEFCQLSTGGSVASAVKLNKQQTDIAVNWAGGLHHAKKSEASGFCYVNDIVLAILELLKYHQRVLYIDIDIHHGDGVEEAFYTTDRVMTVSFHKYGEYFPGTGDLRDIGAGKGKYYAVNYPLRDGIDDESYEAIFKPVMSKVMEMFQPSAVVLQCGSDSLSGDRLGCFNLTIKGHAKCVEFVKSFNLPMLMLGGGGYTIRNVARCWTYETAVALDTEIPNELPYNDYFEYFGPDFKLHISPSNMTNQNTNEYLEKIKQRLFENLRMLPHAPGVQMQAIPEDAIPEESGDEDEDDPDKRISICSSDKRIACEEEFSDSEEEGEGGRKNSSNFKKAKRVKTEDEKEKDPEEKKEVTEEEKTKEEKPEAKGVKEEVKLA

Row | SMILES | pIC50 [1] | pIC50 [2]
1 | O=C(/C=C/c1ccc(CN2CCOC(c3cc(-c4ccccc4)no3)C2)cc1)NO (stereo not drawn) [Compound 24, (E)-N-Hydroxy-3-{4-[2-(3-phenyl-isoxazol-5-yl)-morpholin-4-ylmethyl]-phenyl}-acrylamide] | 6.33 | 7.49
2 | Cc1[nH]c2ccccc2c1C1C/C(=N/O)CN(Cc2ccc(/C=C/C(=O)NO)cc2)C1 (stereo not drawn) [Compound 8, (E)-N-Hydroxy-3-{4-[3-[(Z)-hydroxyimino]-5-(2-methyl-1H-indol-3-yl)-piperidin-1-ylmethyl]-phenyl}-acrylamide] | 6.52 | 7.77
3 | O=C(/C=C/c1ccc(CN2CCCC(c3c(-c4ccccc4)[nH]c4ccccc34)C2)c(F)c1)NO (stereo not drawn) [Compound 15, (E)-3-{3-Fluoro-4-[3-(2-phenyl-1H-indol-3-yl)-piperidin-1-ylmethyl]-phenyl}-N-hydroxy-acrylamide] | 8.28 | 7.96
4 | C=C(C)c1[nH]c2ccccc2c1C1CCCN(Cc2ccc(/C=C/C(=O)NO)cc2F)C1 (stereo not drawn) [Compound 14, (E)-3-{3-Fluoro-4-[3-(2-isopropenyl-1H-indol-3-yl)-piperidin-1-ylmethyl]-phenyl}-N-hydroxy-acrylamide] | 8.22 | 8.15
5 | O=C(/C=C/c1ccc(CN2CCCC(c3c(-c4ccccc4)[nH]c4ccccc34)C2)cc1)NO (stereo not drawn) [Compound 5, (E)-N-Hydroxy-3-{4-[3-(2-phenyl-1H-indol-3-yl)-piperidin-1-ylmethyl]-phenyl}-acrylamide] | 8.68 | 8.22
6 | CC(C)(C)c1[nH]c2ccccc2c1C1=CCCN(Cc2ccc(/C=C/C(=O)NO)cc2)C1 [Compound 7, (E)-3-{4-[5-(2-tert-Butyl-1H-indol-3-yl)-3,6-dihydro-2H-pyridin-1-ylmethyl]-phenyl}-N-hydroxy-acrylamide] | 7.92 | 8.05
7 | O=C(/C=C/c1ccc(CN2CCCC(c3c[nH]c4ccccc34)C2)cc1)NO (stereo not drawn) [Compound 2, (E)-N-Hydroxy-3-{4-[3-(1H-indol-3-yl)-piperidin-1-ylmethyl]-phenyl}-acrylamide] | 7.49 | 8.05
8 | CC(C)c1[nH]c2ccccc2c1C1CCCN(Cc2ccc(CCC(=O)NO)cc2F)C1 (stereo not drawn) [Compound 21, 3-{3-Fluoro-4-[3-(2-isopropyl-1H-indol-3-yl)-piperidin-1-ylmethyl]-phenyl}-N-hydroxy-propionamide] | 7.68 | 8.22
9 | Cc1[nH]c2ccccc2c1[C@H]1CCCN(Cc2ccc(/C=C/C(=O)NO)cc2)C1 [Compound 3, (E)-N-Hydroxy-3-{4-[(R)-3-(2-methyl-1H-indol-3-yl)-piperidin-1-ylmethyl]-phenyl}-acrylamide] | 7.92 | 8.22
10 | CC(C)(C)c1[nH]c2ccccc2c1C1CCCN(Cc2ccc(/C=C/C(=O)NO)cc2Cl)C1 (stereo not drawn) [Compound 12, (E)-3-{4-[3-(2-tert-Butyl-1H-indol-3-yl)-piperidin-1-ylmethyl]-3-chloro-phenyl}-N-hydroxy-acrylamide] | 8.30 | 7.72
11 | CC(C)(O)c1[nH]c2ccccc2c1C1CCCN(Cc2ccc(/C=C/C(=O)NO)cc2F)C1 (stereo not drawn) [Compound 13, (E)-3-(3-Fluoro-4-{3-[2-(1-hydroxy-1-methyl-ethyl)-1H-indol-3-yl]-piperidin-1-ylmethyl}-phenyl)-N-hydroxy-acrylamide] | 8.55 | 8.22
12 | O=C(/C=C/c1ccc(CN2CCCC(c3c(C(=O)N4CCOCC4)[nH]c4ccccc34)C2)c(F)c1)NO (stereo not drawn) [Compound 19, (E)-3-(3-Fluoro-4-{3-[2-(morpholine-4-carbonyl)-1H-indol-3-yl]-piperidin-1-ylmethyl}-phenyl)-N-hydroxy-acrylamide] | 6.30 | 7.66
13 | CC(C)(C)c1[nH]c2ccccc2c1[C@@H]1CCCN(Cc2ccc(/C=C/C(=O)NO)cc2F)C1 [Compound 11, (E)-3-{4-[(S)-3-(2-tert-Butyl-1H-indol-3-yl)-piperidin-1-ylmethyl]-3-fluoro-phenyl}-N-hydroxy-acrylamide] | 9.10 | –
14 | CCOC(=O)c1[nH]c2ccccc2c1C1CCCN(Cc2ccc(/C=C/C(=O)NO)cc2F)C1 (stereo not drawn) [Compound 17, 3-{1-[2-Fluoro-4-((E)-2-hydroxycarbamoyl-vinyl)-benzyl]-piperidin-3-yl}-1H-indole-2-carboxylic acid ethyl ester] | 7.85 | 7.36
15 | Cc1[nH]c2ccc(N3CCOCC3)cc2c1C1CCCN(Cc2ccc(/C=C/C(=O)NO)cc2F)C1 (stereo not drawn) [Compound 4, (E)-3-{3-Fluoro-4-[3-(2-methyl-5-morpholin-4-yl-1H-indol-3-yl)-piperidin-1-ylmethyl]-phenyl}-N-hydroxy-acrylamide] | 7.89 | 7.96
16 | O=C(/C=C/c1ccc(CN2CCCC(c3c(C(=O)NO)[nH]c4ccccc34)C2)c(F)c1)NO (stereo not drawn) [Compound 18, 3-{1-[2-Fluoro-4-((E)-2-hydroxycarbamoyl-vinyl)-benzyl]-piperidin-3-yl}-1H-indole-2-carboxylic acid hydroxyamide] | 7.43 | 7.51
17 | Cc1[nH]c2ccc(N3CCOCC3)cc2c1C1CCCN(Cc2ccc(/C=C/C(=O)NO)cc2)C1 (stereo not drawn) [Compound 20, (E)-N-Hydroxy-3-{4-[3-(2-methyl-5-morpholin-4-yl-1H-indol-3-yl)-piperidin-1-ylmethyl]-phenyl}-acrylamide] | 7.89 | 8.15
18 | O=C(/C=C/c1ccc(CN2CCC(CC(=O)NO)(c3ccc(Cl)cc3)CC2)cc1)NO [Compound 45, (E)-3-{4-[4-(4-Chloro-phenyl)-4-hydroxycarbamoylmethyl-piperidin-1-ylmethyl]-phenyl}-N-hydroxy-acrylamide] | – | 6.96
19 | CC(C)(C)c1[nH]c2ccccc2c1C1CCCN(Cc2ccc(/C=C/C(=O)NO)cc2)C1 (stereo not drawn) [Compound 6, (E)-3-{4-[3-(2-tert-Butyl-1H-indol-3-yl)-piperidin-1-ylmethyl]-phenyl}-N-hydroxy-acrylamide] | 9.52 | 8.52
20 | O=C(/C=C/c1ccc(CN2CCCC(C3C(=O)Nc4ccccc43)C2)cc1)NO (stereo not drawn) [Compound 9, (E)-N-Hydroxy-3-{4-[3-(2-oxo-2,3-dihydro-1H-indol-3-yl)-piperidin-1-ylmethyl]-phenyl}-acrylamide] | 7.32 | 8.10
21 | O=C(/C=C/c1ccc(CN2CCCCC2)cc1)NO [Compound 33, (E)-N-Hydroxy-3-(4-piperidin-1-ylmethyl-phenyl)-acrylamide] | – | 7.00
22 | O=C(/C=C/c1ccc(CN2CCN(C(=O)C3CCCCC3)CC2)cc1)NO [Compound 54, (E)-3-[4-(4-Cyclohexanecarbonyl-piperazin-1-ylmethyl)-phenyl]-N-hydroxy-acrylamide] | – | 6.89
23 | O=C(/C=C/c1ccc(CN2CCN(S(=O)(=O)c3ccc(F)cc3)CC2)cc1)NO [Compound 57, (E)-3-{4-[4-(4-Fluoro-benzenesulfonyl)-piperazin-1-ylmethyl]-phenyl}-N-hydroxy-acrylamide] | – | 6.59
24 | Cc1cccc(S(=O)(=O)N2CCN(Cc3ccc(/C=C/C(=O)NO)cc3)CC2)c1 [Compound 56, (E)-N-Hydroxy-3-{4-[4-(toluene-3-sulfonyl)-piperazin-1-ylmethyl]-phenyl}-acrylamide] | – | 6.59
